Assay results published in US4762848A, “1,3-thiazoles and their use as immunomodulators” (Hoechst Aktiengesellschaft, priority 1985, dated 1988).

Key:
[1] = test system: DTH reaction (SRBC); experiment: Stimulation of the DTH reaction, relative to the compound from Example 7; type: in vivo, NMRI mice; settings: 200 mg/kg, 1 × i.p. day 0; Example 7 = 100%
Procedure: Either 10^6 or 10^9 red blood cells from sheep were administered intravenously to each animal in groups of 5 female NMRI mice weighing 18-20 g. Sheep erythrocytes are regarded in immunology as a standard test substance (antigen) for the induction of cellular and humoral immune reactions. In particular, this test provides information about the functioning of the T-cell-dependent component (T-helper cells) of the immune system. The test substance obtained as in exemplary embodiment 7 ([2-(3-carboxy-1-propylthio)-4 -methyl-1,3-thiazol-5-yl]acetic acid) was administered intraperitoneally and perorally, respectively, […], each animal received 2×10^8 sheep erythrocytes injected into the underside of the foot and, 24 hours later, the swelling of the foot was measured. The foot swelling is induced by a skin reaction of the delayed type (delayed type hypersensitivity, DTH) and is, as is known to the expert, a measure of the cellular immune response (Collins, F. M. and Mackaness, G. B., J. Immunol. 101, 830-845, 1968). The results compiled in Table 1 illustraste that there is an increase in the cellular immune response owing to the administration of the subst nce obtained according to the invention, for example after imnunization with 10^6 or 10^9 sheep erythrocytes. An optimum stimulation can be observed in this experimental design on administration of 20-40 mg/kg test substance.
NMRI mice were treated with the substances according to the invention as described in experiment 1.
The DTH reaction was checked as a test to determine the immunostimulation.
It can be seen from the table that the DTH reaction in the animals pretreated with the test substances is more pronounced than in the corresponding control animals.

[2] = test system: macrophages; experiment: Stimulation of macrophage activity (chemiluminescence), relative to the compound from Example 7; type: in vivo, NMRI mice; settings: 100 mg/kg, 1 × i.p. day 0; relative to Example 7 = 100%
Procedure: (§1) This entailed investigation of the effect of the test substance obtained as in exemplary embodiment 7 on the stimulation of peritoneal macrophages in 6-8 week old NMRI mice. Female mice received the test substance in parenteral or oral doses of 25 mg/kg, 50 mg/kg, 100 mg/kg and 200 mg/kg. Buffered saline solution was administered to a control group. The mice were sacrificed three days after the injections, and the peritoneal macrophages of the animals were examined for their state of activation. The secretion of the lysosomal enzymes (β-galactosidase, β-glucuronidase and N-acetyl-β-D-glucosaminidase) was determined as one measure of macrophage activation. […] The level of oxidative metabolism in macrophages is taken as another measure of their state of activation. This activity is measured with the assistance of a biolumate by determination of the chemiluminescence.
(§2) For this purpose, either 3×10^6 macrophages were cultured with 1 ml of TC 199 culture medium in Petri dishes of diameter 30 mm or 10^6 macrophages were cultured with 100 μl of medium in round-bottomed polyethylene tubes (for determination of the chemiluminescence), with 5% CO2 and at 37° C.
(§3) After incubation for one hour, the cultures were washed to remove floating cells. The chemiluminescence (tube culture) was then determined directly, whereas the Petri dishes were incubated for a further 24 hours at 37° C. and then the enzyme and pinocytosis activities in the cultures were determined.
(§4) NMRI mice were treated with the compounds according to the invention as described in experiment 2.
(§5) The macrophage function (chemiluminescence and enzyme activity) was checked as a test to determine the immunostimulation.
(§6) It can be seen from the table that in comparison with macrophages from untreated animals, the chemiluminescence reaction of these cells was also greatly stimulated by all the test substances, and their content of lysosomal enzymes was markedly raised.

[3] = test system: macrophages; experiment: Stimulation of macrophage activity (exocytosis / lysosomal enzyme activity), relative to the compound from Example 7; type: in vivo, NMRI mice; settings: 100 mg/kg, 1 × i.p. day 0; relative to Example 7 = 100%
Procedure: as §1, §2, §3, §4, §5, §6

[4] = test system: mouse peritoneal macrophages; experiment: Pinocytosis of colloidal gold (198Au) by peritoneal macrophages of treated mice; type: in vivo, NMRI mice
Procedure: as §1, §2, §3
The quantitative determination of the pinocytosis activity of mononuclear phagocytes was carried out by the method of Davies et al. (Davies, P., Allison, A. C. and Haswell, A. D.; Biochem. Biophys. Res. Com. 52, 627, 1973). Radioactive colloidal gold (^198 Au) with a particle size of 20 nm and a specific activity of 4-12 mCi/mg of Au was used for this. The results in Table 4 illustrate the effect of the test substance obtained as in Example 7 on the efficiency of endocytosis.

[5] = test system: cellular immune response (DTH reaction) to sheep erythrocytes; experiment: Delayed type hypersensitivity (DTH) foot swelling reaction to sheep erythrocytes; type: in vivo, female NMRI mice; settings: mice, i.p. and p.o.
Procedure: Effect On The Cellular Immunological Reaction, of the Delayed Type, to Sheep Erythrocytes (Delayed Type Hypersensitivity, DTH)
Either 10^6 or 10^9 red blood cells from sheep were administered intravenously to each animal in groups of 5 female NMRI mice weighing 18-20 g. Sheep erythrocytes are regarded in immunology as a standard test substance (antigen) for the induction of cellular and humoral immune reactions. In particular, this test provides information about the functioning of the T-cell-dependent component (T-helper cells) of the immune system. The test substance obtained as in exemplary embodiment 7 ([2-(3-carboxy-1-propylthio)-4 -methyl-1,3-thiazol-5-yl]acetic acid) was administered intraperitoneally and perorally, respectively, in the concentrations 10-100 mg/kg in physiological saline solution on days -3, -2, -1 and 0.After 5 days, each animal received 2×10^8 sheep erythrocytes injected into the underside of the foot and, 24 hours later, the swelling of the foot was measured. The foot swelling is induced by a skin reaction of the delayed type (delayed type hypersensitivity, DTH) and is, as is known to the expert, a measure of the cellular immune response (Collins, F. M. and Mackaness, G. B., J. Immunol. 101, 830-845, 1968). […]

With `Cc1nc(SCCCC(=O)O)sc1CC(=O)O` [Example 7, [2-(3-Carboxy-1-propylthio)-4-methyl-1,3-thiazol-5-yl]acetic acid] the “DTH reaction (SRBC), relative activity” value [1] was 100%, the “Macrophage activity: Chemiluminescence, relative activity” value [2] was 100% and the “Macrophage activity: Exocytosis, relative activity” value [3] was 100%. For the same compound, the “efficiency of pinocytosis of mouse macrophages” value (“efficiency” for short) ([4]; 25 mg/kg, 1 × intraperitoneal) was 0.415 × 10^3 cpm, the “efficiency” value ([4]; 25 mg/kg, 1 × oral) was 0.365 × 10^3 cpm and the “efficiency” value ([4]; 50 mg/kg, 1 × intraperitoneal) was 0.558 × 10^3 cpm. For the same compound, the “efficiency” value ([4]; 50 mg/kg, 1 × oral) was 0.448 × 10^3 cpm, the “efficiency” value ([4]; 100 mg/kg, 1 × intraperitoneal) was 0.718 × 10^3 cpm and the “efficiency” value ([4]; 100 mg/kg, 1 × oral) was 0.661 × 10^3 cpm. The “efficiency” value ([4]; 200 mg/kg, 1 × intraperitoneal) was 0.862 × 10^3 cpm, the “efficiency” value ([4]; 200 mg/kg, 1 × oral) was 0.739 × 10^3 cpm and the “dose for optimum stimulation of the cellular immune response” value [5] was 20 to 40 mg/kg.
